The text below walks through data of patent US20250025443A1, “COMPOUNDS AND METHODS FOR TREATING CORONA VIRUSES” (CLEAR CREEK BIO, INC., priority 2021, published 2025).

A value given as a limit tells only on which side of the number the result lay.

In the assay the target is SARS-CoV-2 Papain-Like Protease (PLpro) (Severe acute respiratory syndrome coronavirus 2 (2019-nCoV) (SARS-CoV-2), UniProt P0DTD1). Put plainly: biochemical. As to conditions: PLpro enzymatic fluorescence assay; class symbols; read-out: PLpro IC50.

As usually defined, the IC50 is the midpoint of a concentration-inhibition curve. In the case of `Cc1ccc(OC[C@@H]2CCN2C)cc1C(=O)NC1(c2cc(-c3ccc(CN4CCC(F)(F)C4)s3)cc3ncccc23)CC1` [Compound 805, (S)—N-(1-(7-(5-((3,3-Difluoropyrrolidin-1-yl)methyl)thiophen-2-yl)quinolin-5-yl)cyclopropyl)-2-methyl-5-((1-methylazetidin-2-yl)methoxy)benzamide], the IC50 is < 100 nM.
With `CC(=O)c1ncc(-c2cc(C3(NC(=O)c4cc(OC[C@@H]5CCN5C)ccc4C)CC3)c3cccnc3c2)o1` [Compound 806, (S)-N-(1-(7-(2-Acetyloxazol-5-yl)quinolin-5-yl)cyclopropyl)-2-methyl-5-((1-methylazetidin-2-yl)methoxy)benzamide], the IC50 is < 100 nM.
For the compound `Cc1ccc(-c2cc(C3(NC(=O)c4cc(OC[C@@H]5CCN5C)ccc4C)COC3)c3cccnc3c2)o1` [Compound 808], the IC50 is < 100 nM.
With `Cc1ccc2c(C3(NC(=O)c4cc(OC[C@@H]5CCN5C)ccc4C)CC3)cc(O)cc2n1` [Compound 809, (S)-N-(1-(7-Hydroxy-2-methylquinolin-5-yl)cyclopropyl)-2-methyl-5-((1-methylazetidin-2-yl)methoxy)benzamide] the figure was < 100 nM; with `Cc1ccc2c(C3(NC(=O)c4cc(OC[C@@H]5CCN5C)ccc4C)CC3)cc(N3CC(C(F)(F)F)C3)cc2n1` [Compound 810, (S)-2-Methyl-N-(1-(2-methyl-7-(3-(trifluoromethyl)azetidin-1-yl)quinolin-5-yl)cyclopropyl)-5-((1-methylazetidin-2-yl)methoxy)benzamide], < 100 nM.
As to `COC1CN(c2cc(C3(NC(=O)c4cc(OC[C@@H]5CCN5C)ccc4C)CC3)c3ccc(C)nc3c2)C1` [Compound 811, (S)—N-(1-(7-(3-Methoxyazetidin-1-yl)-2-methylquinolin-5-yl)cyclopropyl)-2-methyl-5-((1-methylazetidin-2-yl)methoxy)benzamide], the IC50 is < 100 nM.
The result for `Cc1nc(Cl)c(-c2cc(C3(NC(=O)c4cc(OC[C@@H]5CCN5C)ccc4C)CC3)c3cccnc3c2)s1` [Compound 812, (S)-N-(1-(7-(4-Chloro-2-methylthiazol-5-yl)quinolin-5-yl)cyclopropyl)-2-methyl-5-((1-methylazetidin-2-yl)methoxy)benzamide] reads < 100 nM.
The result for `C=Cc1cc(C2(NC(=O)c3cc(OC[C@@H]4CCN4C)ccc3C)CC2)c2ccc(C)nc2c1` [Compound 813, (S)-2-Methyl-N-(1-(2-methyl-7-vinylquinolin-5-yl)cyclopropyl)-5-((1-methylazetidin-2-yl)methoxy)benzamide] reads < 100 nM; that for `Cc1ncc(-c2cc(C3(NC(=O)c4cc(OC[C@@H]5CCN5C)ccc4C)CC3)c3cccnc3c2Cl)s1` [Compound 814, (S)-N-(1-(8-Chloro-7-(2-methylthiazol-5-yl)quinolin-5-yl)cyclopropyl)-2-methyl-5-((1-methylazetidin-2-yl)methoxy)benzamide], < 100 nM; that for `Cc1ccc2c(C3(NC(=O)c4cc(OC[C@@H]5CCN5C)ccc4C)CC3)cc(CCC(F)(F)F)cc2n1` [Compound 815, (S)-2-Methyl-N-(1-(2-methyl-7-(3,3,3-trifluoropropyl)quinolin-5-yl)cyclopropyl)-5-((1-methylazetidin-2-yl)methoxy)benzamide], < 100 nM.
`Cc1ccc2c(C3(NC(=O)c4cc(OC[C@@H]5CCN5C)ccc4C)CC3)cc(N3CC(F)C3)cc2n1` [Compound 816, (S)—N-(1-(7-(3-Fluoroazetidin-1-yl)-2-methylquinolin-5-yl)cyclopropyl)-2-methyl-5-((1-methylazetidin-2-yl)methoxy)benzamide]: the IC50 is < 100 nM.
For `COc1cc(C2(NC(=O)c3cc(OC[C@@H]4CCN4C)ccc3C)CC2)c2ccc(C(F)(F)F)nc2c1` [Compound 817, (S)-N-(1-(7-Methoxy-2-(trifluoromethyl)quinolin-5-yl)cyclopropyl)-2-methyl-5-((1-methylazetidin-2-yl)methoxy)benzamide], the IC50 is < 100 nM.
The result for `Cc1ccc(OC[C@@H]2CCN2C)cc1C(=O)NC1(c2cc(N(C)S(C)(=O)=O)cc3ncccc23)CC1` [Compound 818, (S)-2-Methyl-5-((1-methylazetidin-2-yl)methoxy)-N-(1-(7-(N-methylmethylsulfonamido)quinolin-5-yl)cyclopropyl)benzamide] reads < 100 nM; that for `Cc1ccc2c(C3(NC(=O)c4cc(OC[C@@H]5CCN5C)ccc4C)CC3)cc(N(C)S(C)(=O)=O)cc2n1` [Compound 819, (S)-2-Methyl-N-(1-(2-methyl-7-(N-methylmethylsulfonamido)quinolin-5-yl)cyclopropyl)-5-((1-methylazetidin-2-yl)methoxy)benzamide], < 100 nM; that for `CC(=O)c1ccc(-c2cc(C3(NC(=O)c4cc(OC[C@@H]5CCN5C)ccc4C)COC3)c3cccnc3c2)s1` [Compound 821, (S)-N-(3-(7-(5-Acetylthiophen-2-yl)quinolin-5-yl)oxetan-3-yl)-2-methyl-5-((1-methylazetidin-2-yl)methoxy)benzamide], < 100 nM.
With `Cc1ccc2c(C3(NC(=O)c4cc(OC[C@@H]5CCN5C)ccc4C)CC3)cc(OCF)cc2n1` [Compound 823, (S)—N-(1-(7-(Fluoromethoxy)-2-methylquinolin-5-yl)cyclopropyl)-2-methyl-5-((1-methylazetidin-2-yl)methoxy)benzamide] the figure was < 100 nM; with `CC#Cc1cc(C2(NC(=O)c3cc(OC[C@@H]4CCN4C)ccc3C)CC2)c2ccc(C)nc2c1` [Compound 824, (S)-2-Methyl-N-(1-(2-methyl-7-(prop-1-yn-1-yl)quinolin-5-yl)cyclopropyl)-5-((1-methylazetidin-2-yl)methoxy)benzamide], < 100 nM; with `Cc1ccc2c(C3(NC(=O)c4cc(OC[C@@H]5CCN5C)ccc4C)CC3)cc(NS(C)(=O)=O)cc2n1` [Compound 825, (S)-2-Methyl-N-(1-(2-methyl-7-(methylsulfonamido)quinolin-5-yl)cyclopropyl)-5-((1-methylazetidin-2-yl)methoxy)benzamide], < 100 nM.
The result for `Cc1ccc2c(C3(NC(=O)c4cc(OC[C@@H]5CCN5C)ccc4C)CC3)cc(NCC(F)(F)F)cc2n1` [Compound 826, (S)-2-Methyl-N-(1-(2-methyl-7-((2,2,2-trifluoroethyl)amino)quinolin-5-yl)cyclopropyl)-5-((1-methylazetidin-2-yl)methoxy)benzamide] reads < 100 nM; that for “(S)-2-Methyl-N-(1-(2-methyl-7-((2,2,2-trifluoroethyl)amino)quinolin-5-yl)cyclopropyl)-5-((1-methylazetidin-2-yl)methoxy)benzamide [Compound 807]”, < 100 nM; that for “(S)-5-(Azetidin-2-ylmethoxy)-2-methyl-N-(1-(7-morpholinoquinolin-5-yl)cyclopropyl)benzamide [Compound 712]”, < 100 nM.
Turning to “(S)—N-(1-(7-Methoxy-2-methylquinolin-5-yl)cyclopropyl)-2-methyl-5-((1-(methyl-d3)azetidin-2-yl)methoxy)benzamide [Compound 798]”, the IC50 is < 100 nM.
